In US20220098154A1 (IDEAYA Biosciences, Inc., priority 2019, published 2022):

Target: T1, Pol theta polymerase domain (residues 1819-2590) (Homo sapiens, UniProt O75417)
T1 construct: Pol theta polymerase domain (residues 1819-2590)
T1 sequence (O75417 1819-2590): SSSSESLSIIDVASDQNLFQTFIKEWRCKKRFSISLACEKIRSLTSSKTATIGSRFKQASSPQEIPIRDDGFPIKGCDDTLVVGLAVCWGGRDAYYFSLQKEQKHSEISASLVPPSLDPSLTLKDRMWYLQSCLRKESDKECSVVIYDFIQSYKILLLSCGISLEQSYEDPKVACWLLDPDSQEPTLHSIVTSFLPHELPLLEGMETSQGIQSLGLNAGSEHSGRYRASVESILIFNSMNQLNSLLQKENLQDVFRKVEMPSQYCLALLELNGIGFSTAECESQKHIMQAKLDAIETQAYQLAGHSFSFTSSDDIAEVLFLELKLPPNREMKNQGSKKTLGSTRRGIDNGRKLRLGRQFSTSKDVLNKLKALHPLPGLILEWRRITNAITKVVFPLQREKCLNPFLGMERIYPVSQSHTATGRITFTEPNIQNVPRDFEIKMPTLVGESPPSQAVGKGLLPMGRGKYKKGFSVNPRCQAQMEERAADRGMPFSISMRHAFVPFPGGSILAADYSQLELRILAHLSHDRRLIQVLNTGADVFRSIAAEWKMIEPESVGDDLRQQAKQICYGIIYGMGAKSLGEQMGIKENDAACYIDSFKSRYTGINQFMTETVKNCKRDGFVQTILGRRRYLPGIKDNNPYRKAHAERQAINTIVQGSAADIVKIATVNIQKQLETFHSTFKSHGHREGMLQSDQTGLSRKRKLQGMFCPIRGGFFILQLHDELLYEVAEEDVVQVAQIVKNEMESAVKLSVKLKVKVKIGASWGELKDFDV
Test: Primer extension assay: inhibition of polymerase activity of Pol theta (molecular beacon fluorescence)
Assay type: biochemical
Settings: Pol theta polymerase domain 4 nM; 15 min pre-incubation; fluorescence change over 30 min (ex 485 nm, em 535 nm); 11-point dilution series
Procedure: The ability of the compounds of Formula (I) to inhibit polymerase activity of Pol theta was determined using the assay described below.
A mixture of 20 uL of Pol theta polymerase domain (residues 1819-2590) at a final concentration of 4 nM in assay buffer (20 m M TRIS, pH 7.80, 50 mM KCl, 10 mM MgCl2, 1 mM DTT, 0.01% BSA, 0.01% Tween20) was added to test compounds (11-point dilution series of test compounds) except the low control wells without test compounds. The above enzyme and test compound inhibitor mixture was then incubated at room temperature for 15 min. An equal volume (20 μl) of dNTP substrate mixture (48 μM) and primed molecular beacon DNA (obtained by annealing template SEQ ID NO 2: (5′-CCTTCCTCCCGTGTCTTG-TACCTTCCCGTCA-GGAGGAAGG-3′) with 5′-TAMRA and 3′-BHQ and primer DNA (SEQ ID NO: 3; 5′-GACGGGAAGG-3′) in 10 mM Tris-HCl pH 8.0, 100 mM NaCl buffer) (96 nM) in assay buffer was added to all the test wells. The inhibition activity was measured by monitoring the fluorescence change over 30 min at 535 nm upon excitation at 485 nm. The high control (DMSO with enzyme) with high fluorescence intensity represents no inhibition of polymerase reaction while the low control (DMSO with buffer) with low fluorescence intensity represents full inhibition of polymerase activity. Slope of the reaction progress curves were used to calculate the rate of polymerization. The rates were used to determine the percent inhibition using a four-parameter inhibition model to generate IC50, Hill slope and max inhibition.

`Cc1cc(OCC(=O)N(C)c2ccccc2)nc(C)c1Cl` (racemic) [Example 36, 2-(5-chloro-4,6-dimethylpyridin-2-yloxy)-N-methyl-N-phenyl-acetamide] and `Cc1nc(NCC(=O)N(C)c2cccc(C#N)c2)c(C#N)c(C)c1Cl` [Example 21, 2-((5-chloro-3-cyano-4,6-dimethylpyridin-2-yl)-amino)-N-(3-cyanophenyl)-N-methylacetamide] fall in the same range of IC50: 200 to 500 nM for the first, 200 to 500 nM for the second.

First: CN(C(=O)CNc1nc(C(F)(F)F)cc(C(F)(F)F)c1C#N)c1cccc(C(N)=O)c1 [Example 1, 3-(2-(3-cyano-4,6-bis(trifluoromethyl)pyridin-2-yl-amino)-N-methylacetamido)benzamide]
Second: CN(C(=O)CNc1nc(C(F)(F)F)cc(C(F)(F)F)c1C#N)c1ccc(F)cc1 [Example 10, 2-(3-cyano-4,6-bis(trifluoromethyl)pyridin-2-yl-amino)-N-(4-fluorophenyl)-N-methylacetamide]
The IC50 of the first is higher: 500 to 1000 nM for the first, less than 200 nM for the second. The second is the more potent here.

`CN(C(=O)CNc1nc(C(F)(F)F)cc(C(F)(F)F)n1)c1ccc(F)cc1` [Example 2, 2-(4,6-bis(trifluoromethyl)pyrimidin-2-ylamino)-N-(4-fluoro-phenyl)-N-methylacetamide] and `CN(C(=O)CNc1cc(C(F)(F)F)cc(C(F)(F)F)n1)c1ccc(F)cc1` [Example 7, 2-((4,6-bis(trifluoromethyl)pyridin-2-yl)amino)-N-(4-fluoro-phenyl)-N-methylacetamide] cannot be ordered by IC50: less than 200 nM for the first, less than 200 nM for the second.

First: CN(C(=O)CNc1nc(C(F)(F)F)cc(C(F)(F)F)c1C#N)c1ccc(C#N)cc1 [Example 3, 2-((3-cyano-4,6-bis(trifluoromethyl)pyridin-2-yl)-amino)-N-(4-cyanophenyl)-N-methylacetamide]
Second: COc1ccc(N(C)C(=O)CNc2nc(C(F)(F)F)cc(C(F)(F)F)c2C#N)cc1 [Example 9, 2-[[3-cyano-4,6-bis(trifluoromethyl)pyridin-2-yl]-amino]-N-(4-methoxyphenyl)-N-methylacetamide]
The IC50 of the first is higher: 200 to 500 nM for the first, less than 200 nM for the second. The second is the more potent here.

`N#Cc1c(C(F)(F)F)cc(C(F)(F)F)nc1NCC(=O)N(c1ccc(F)cc1)C1CC1` [Example 4, 2-((3-cyano-4,6-bis(trifluoromethyl)pyridin-2-yl)-amino)-N-cyclopropyl-N-(4-fluorophenyl)acetamide] and `N#Cc1c(C(F)(F)F)cc(C(F)(F)F)nc1NCC(=O)N(CC(F)(F)F)c1ccc(F)cc1` [Example 8, 2-(3-cyano-4,6-bis(trifluoromethyl)pyridin-2-yl-amino)-N-(4-fluorophenyl)-N-(2,2,2-trifluoroethyl)-acetamide] cannot be ordered by IC50: less than 200 nM for the first, less than 200 nM for the second.

`CN(C(=O)CNc1nc(C(F)(F)F)cc(C(F)(F)F)c1C#N)c1ccc(OC2CC2)cc1` [Example 5, 2-((3-cyano-4,6-bis(trifluoromethyl)pyridin-2-yl)-amino)-N-(4-cyclopropoxyphenyl)-N-methyl-acetamide] and `CN(C(=O)CNc1nc(C(F)(F)F)cc(C(F)(F)F)c1C#N)c1ccc(OC(F)(F)F)cc1` [Example 6, 2-((3-cyano-4,6-bis(trifluoromethyl)pyridin-2-yl)-amino)-N-methyl-N-(4-(trifluoromethoxy)phenyl)-acetamide] cannot be ordered by IC50: less than 200 nM for the first, less than 200 nM for the second.

`CN(C(=O)CNc1cc(Cl)cc(C(F)(F)F)c1C#N)c1ccc(F)cc1` [Example 11, 2-[[5-chloro-2-cyano-3-(trifluoromethyl)phenyl]-amino]-N-(4-fluorophenyl)-N-methylacetamide] and `CN(C(=O)CNc1cc(Cl)cc(C(F)(F)F)c1)c1ccc(F)cc1` [Example 13, 3-[[3-chloro-5-(trifluoromethyl)phenyl]amino]-N-(4-fluoro-phenyl)-N-methylacetamide] cannot be ordered by IC50: less than 200 nM for the first, less than 200 nM for the second.

Compared with `CN(C(=O)CNc1cc(C(F)(F)F)cc(C(F)(F)F)c1)c1ccc(F)cc1` [Example 12, 2-((3,5-bis(trifluoromethyl)phenyl)amino)-N-(4-fluorophenyl)-N-methylacetamide], `CN(C(=O)COc1cc(Cl)cc(C(F)(F)F)c1)c1ccc(F)cc1` [Example 14, 2-[3-chloro-5-(trifluoromethyl)phenoxy]-N-(4-fluoro-phenyl)-N-methylacetamide] is higher in IC50: less than 200 nM for the first, 200 to 500 nM for the second. The first is the more potent here.

`Cc1nc(N[C@@H](CCO)C(=O)N(C)c2ccc(F)cc2)c(C#N)c(C)c1Cl` [Example 15, (S)-2-(5-chloro-3-cyano-4,6-dimethylpyridin-2-yl-amino)-N-(4-fluorophenyl)-4-hydroxy-N-methyl-butanamide] and `Cc1nc(N[C@@H](CC(N)=O)C(=O)N(C)c2ccc(F)cc2)c(C#N)c(C)c1Cl` [Example 18, (S)-2-(5-chloro-3-cyano-4,6-dimethylpyridin-2-yl-amino)-N1-(4-fluorophenyl)-N1-methylsuccinamide] fall in the same range of IC50: 200 to 500 nM for the first, 200 to 500 nM for the second.

Compared with `Cc1nc(NCC(=O)N(C)c2ccc(F)cc2)c(C#N)c2ccccc12` [Example 19, 2-[(4-cyano-1-methylisoquinolin-3-yl)amino]-N-(4-fluorophenyl)-N-methylacetamide], `Cc1c(C#N)c(NCC(=O)N(C)c2ccc(F)cc2)nc2ccccc12` [Example 29, 2-[(3-cyano-4-methylquinolin-2-yl)amino]-N-(4-fluorophenyl)-N-methylacetamide] is higher in IC50: less than 200 nM for the first, 500 to 1000 nM for the second. The first is the more potent here.

First: CN(C(=O)CNc1cc(Cl)cc(Br)c1)c1ccc(F)cc1 [Example 20, 2-[(3-bromo-5-chlorophenyl)amino]-N-(4-fluoro-phenyl)-N-methylacetamide]
Second: CN(C(=O)CNc1cc(Cl)cc(Cl)c1)c1ccc(F)cc1 [Example 31, 2-[(3,5-dichlorophenyl)amino]-N-(4-fluorophenyl)-N-methyl-acetamide]
The IC50 of the first is lower: 200 to 500 nM for the first, 500 to 1000 nM for the second.

`COc1ccc(N(C)C(=O)CNc2nc(C)c(Cl)c(C)c2C#N)cc1` [Example 22, 2-(5-chloro-3-cyano-4,6-dimethylpyridin-2-ylamino)-N-(4-methoxyphenyl)-N-methylacetamide] and `Cc1nc(NCC(=O)N(C)c2ccc(Cl)c(Cl)c2)c(C#N)c(C)c1Cl` [Example 32, 2-(5-chloro-3-cyano-4,6-dimethylpyridin-2-ylamino)-N-(3,4-dichlorophenyl)-N-methylacetamide] cannot be ordered by IC50: less than 200 nM for the first, less than 200 nM for the second.

`Cc1nc(NCC(=O)N(C)c2ccc(F)cc2)c(Cl)c(C)c1Cl` [Example 23, 2-(3,5-dichloro-4,6-dimethylpyridin-2-ylamino)-N-(4-fluoro-phenyl)-N-methylacetamide] and `Cc1nc(N[C@@H](C)C(=O)N(C)c2ccc(F)cc2)c(C#N)c(C)c1Cl` [Example 25, (S)-2-((5-chloro-3-cyano-4,6-dimethylpyridin-2-yl)-amino)-N-(4-fluorophenyl)-N-methylpropanamide] cannot be ordered by IC50: less than 200 nM for the first, less than 200 nM for the second.

First: CN(C(=O)CNc1ncc2c(c1C#N)CCC2)c1ccc(F)cc1 [Example 24, 2-(4-cyano-6,7-dihydro-5H-cyclopenta[c]pyridin-3-ylamino)-N-(4-fluorophenyl)-N-methylacetamide]
Second: Cc1nc(NCC(=O)N(C)c2ccc(F)cc2)c(C#N)c2c1CCC2 [Example 28, 2-(4-cyano-1-methyl-6,7-dihydro-5H-cyclopenta[c]-pyridin-3-ylamino)-N-(4-fluorophenyl)-N-methylacetamide]
The IC50 of the first is higher: 500 to 1000 nM for the first, less than 200 nM for the second. The second is the more potent here.

Compared with `Cc1nc(NCC(=O)N(C)c2ccc(F)cc2F)c(C#N)c(C)c1Cl` [Example 26, 2-((5-chloro-3-cyano-4,6-dimethylpyridin-2-yl)-amino)-N-(2,4-difluorophenyl)-N-methylacetamide], `Cc1nc(NCC(=O)N(c2ccc(Cl)cc2)C(C)C)c(C#N)c(C)c1Cl` [Example 30, 2-[(5-chloro-3-cyano-4,6-dimethylpyridin-2-yl)-amino]-N-(4-chlorophenyl)-N-(propan-2-yl)-acetamide] is higher in IC50: less than 200 nM for the first, 200 to 500 nM for the second. The first is the more potent here.

Compound `Cc1c(C#N)c(NCC(=O)N(C)c2ccc(F)cc2)nc2c1CCC2` [Example 27, 2-([3-cyano-4-methyl-5H,6H,7H-cyclopenta[b]-pyridin-2-yl]amino)-N-(4-fluorophenyl)-N-methylacetamide] has an IC50 of less than 200 nM.
